Data on 89 compounds can be found in a melting point compilation (Tetko et al.; mined from patent text by program, amines drawn as free bases though some values may be those of a salt).

What is called melting point is the temperature of the solid-liquid transition. In turn, `NC(=O)N1C(=O)C(C(=O)c2cccs2)c2cc(Cl)ncc21` (centres undefined) registered a melting point of 252 °C.

The compound `CCCCOC(=O)c1ccc2cc(O)ccc2c1` had a melting point of 107 to 112 °C.

On to `CCc1oc2ccccc2c1C(=O)c1ccc(Cl)c(S(N)(=O)=O)c1`, for which the melting point is 170 to 172 °C.

As for `CCNC(=O)c1cc(NC)ccc1[Si](C)(C)C`, the melting point was 101 to 102 °C.

The compound `CSc1nc(-c2cc(N)ccc2C)c2c(n1)N(c1c(F)cccc1F)C(=O)NC2` showed a melting point of 122 to 125 °C.

Regarding `CCC(=O)c1cc(Cl)c(OC)cc1OC`, the melting point worked out at 115 °C.

With `Cc1ccccc1OC(C)C(=O)OC1CC(O)C=C2C=CC(C)C(CCC3CC(O)CC(=O)O3)C21` (mixture of isomers), the melting point was 85 to 87 °C.

Regarding `Cc1ccc(S(=O)(=O)OCC2Cc3cccc(-c4cc(Cl)cc(Cl)c4)c3O2)cc1` (centres undefined), the melting point fell in the range of 113 to 115 °C.

With `Cn1cc(C(=O)C(Cl)Cl)c(=O)c(-c2cccc(Cl)c2)c1`, the melting point was 201 to 202 °C.

The compound `Cc1cccc(C2c3cc(NC(=O)CC(C)(C)C)c(C)c(C)c3OC2(C)C)c1` (centres undefined) registered a melting point of 156 to 157 °C.

Take `c1ccc(-c2ccc(-c3nc4n(n3)CCCc3ccccc3-4)cc2)cc1`: the melting point fell in the range of 135 to 137 °C.

Compound `COC(=O)c1cn(-c2ccc(O)cc2C)c(C2CCC(Br)C(Br)C2)cc1=O` (centres undefined) returned a melting point of 197 to 200 °C.

On to `CCN(CC)CCOc1ccc(Nc2nc(N)c(C(=O)c3cccc(OC)c3)s2)cc1`, for which the melting point is 118 to 123 °C.

On to `COC(=O)c1nc2c(c(SC)nn2-c2ccccc2)c(N)c1C(=O)OC`, for which the melting point is 120 to 122 °C.

For the compound `CC1=C(c2ccncc2)SC(OC(=O)c2cccc(Cl)c2)C(=O)N1` (centres undefined), the melting point was 142 to 143 °C.

Regarding `CC(NC(=O)c1c(F)cccc1F)C(F)(F)F` (centres undefined), the melting point lay within 167 to 168 °C.

Turning to `O=C(Nc1c(Cl)cncc1Cl)c1ccc(SCF)c(OC2CCCC2)c1`, the melting point lay within 111 to 113 °C.

On to `Nc1c(-c2ccc(O)cc2)ncnc1-c1ccc(Cl)cc1Cl`, for which the melting point lay in the range of 97.3 to 98.2 °C.

Regarding `COc1cc(C)c(Cl)c2c(=O)oc3c(c12)C(=O)c1cccc(O)c1C3=O`, the melting point is 294 to 296 °C.

Compound `C=COC(=O)[C@H](Cc1ccccc1)NC(C)=O` yielded a melting point of 90 to 93 °C.

The compound `Cc1cc2ncnn2c(N2CCN(C)CC2)n1` returned a melting point of 95 to 98 °C.

`CCOC(=O)c1cnc2cccc(O)c2c1` showed a melting point of 240 °C.

The compound `Cc1cc(-c2cc(N)n3nc(-c4ccco4)nc3c2)ccn1` returned a melting point of 100 to 101 °C.

As for `O=S(=O)(c1ccc(O)cc1)N1c2ccccc2-c2ccccc2C1c1ccccc1` (centres undefined), the melting point was in the range of 210 to 212 °C.

`O=C(O)CNc1cc(Cl)ccc1C(=O)O` registered a melting point of 231 °C.

`CCOC(OCC)c1nc(-c2ccc(Cl)cc2)c(F)c(N=C2C=CC(=O)C=C2)c1Cl` yielded a melting point of 134 to 136 °C.

The compound `Cc1noc(C)c1-c1nn(C(C)c2oc3ccccc3c(=O)c2-c2cccc(F)c2)c2ncnc(N)c12` (centres undefined) yielded a melting point of 218 to 222 °C.

`CN(c1cccc2c(F)c(C3=NCC(CC(=O)O)S3)[nH]c12)S(=O)(=O)c1cccs1` (centres undefined) displayed a melting point of 213 to 214 °C.

With `COc1cc(Nc2c(C#N)cnc3cc(NCCCC4CCN(C)CC4)c(OC)cc23)c(Cl)cc1Cl`, the melting point fell in the range of 122 to 124 °C.

The compound `CC(C)(C)OC(=O)NCC12CN(c3cc4c(cc3F)c(=O)c(C(=O)O)cn4C3CC3)CC1CCO2` (centres undefined) displayed a melting point of 235 to 237 °C.

In turn, `O=C(C=Cc1ccccc1)NNC(=O)c1ccccc1O` came in with a melting point of 271 °C.

The compound `Cc1cc(C(C)(C)C)cc(C)c1S(=O)(=O)C[N+](=O)[O-]` gave a melting point of 90 to 92 °C.

On to `COCCC(=O)Nc1ccc(CCCc2ccccc2OCc2ccccc2)cc1`, for which the melting point lay in the range of 65 to 66 °C.

As to `Cc1cc(COC2CCCCO2)nc(N)n1` (centres undefined), the melting point is 109 to 110 °C.

`CC(C)C[C@H](NC(=O)[C@H](Cc1ccccc1)NC(=O)C1CCCC1)C(=O)O`: the melting point is 148 to 151 °C.

`COc1cc(Br)ccc1Oc1ccccc1O` registered a melting point of 107 to 109 °C.

Consider `COC(=O)[C@H](Cc1cncn1C)NC(=O)C(Cc1cccc2ccccc12)Cc1cccc2ccccc12`, for which the melting point was 199 to 200 °C.

With `CC(C)(C)OC(=O)N[C@@H](Cc1ccc(-c2ccccc2)cc1)C(=O)O`, the melting point lay within 122 to 123 °C.

Regarding `CCOC(=O)c1cn(CC)c2cc(Cl)c(Br)cc2c1=O`, the melting point worked out at 166 °C.

In turn, `Cn1cccc1C(=O)c1[nH]c2ccc(Cl)cc2c1CC(=O)O` yielded a melting point of 203 to 205 °C.

For the compound `N#CN=C(N)Cc1ccc2c(c1)Nc1nccnc1S2`, the melting point is 218 to 219 °C.

Compound `CN(C)/C=C/C(=C(C#N)C#N)c1ccc2cc(N(C)C)ccc2c1` yielded a melting point of 213 to 215 °C.

Compound `COc1cc(C2C3=C(CNC3=O)Nc3cc4c(cc32)OCO4)cc(OC)c1OC` (centres undefined) registered a melting point of 244 °C.

In turn, `CC(C)CNC(=O)/C=C/c1cccc(Cl)c1` registered a melting point of 112 °C.

In the case of `Clc1cccnc1N1CCN(c2nc3ccc(Br)cc3[nH]2)CC1`, the melting point lay in the range of 207 to 208 °C.

Consider `CCCc1ccc(COc2ccc3c(c2)CCC(CN2CC(C(=O)O)C2)=C3C)c(OC)c1`, for which the melting point was in the range of 158 to 163 °C.

As to `CC(=O)C=Cc1cc2ccccc2o1`, the melting point lay within 100 to 101 °C.

In turn, `Nc1ccnc(/C=C/c2ccccc2)c1` returned a melting point of 164 to 165 °C.

Regarding `c1ccc2c(-c3nnn[nH]3)cccc2c1`, the melting point was 205 to 206 °C.

The compound `Cn1cc(-c2ccccc2)c(=O)c(-c2ccc(-c3ccccc3)cc2)c1` gave a melting point of 186 to 190 °C.

`O=[N+]([O-])c1ccc(CS(=O)(=O)NCCc2ccccc2)cc1` returned a melting point of 101 to 103 °C.

Turning to `COC(=O)/C=C(\C)CSc1nc(N)cc(Cl)n1`, the melting point fell in the range of 134 to 136 °C.

`Nc1ccc(Sc2c(NCc3ccccc3)cc(C(=O)O)cc2S(N)(=O)=O)cc1` came in with a melting point of 254 to 256 °C.

The compound `CC(C)c1cccc(C(C)C)c1NC(=O)Cc1c(-c2ccccc2)c2cc(Cl)ccc2n1C` gave a melting point of 279 to 280 °C.

As to `CC(C)(C)c1ccc(OC(Cc2ccc(OCCNC(=O)c3ccc(-c4ccccn4)cc3)cc2)C(=O)O)cc1` (centres undefined), the melting point was 94 to 96 °C.

Compound `CCOC(=O)c1ccc(OCC2CN(c3cccnn3)CCO2)cc1` (centres undefined) registered a melting point of 110 °C.

Consider `CC(=O)c1ccc(-c2ccc(F)cc2)c([N+](=O)[O-])c1`, for which the melting point lay in the range of 88 to 90 °C.

With `Cc1nc(-n2cc(C(O)c3ccccc3)nn2)sc1C(=O)NCc1ccccc1` (centres undefined), the melting point is 143 to 146 °C.

For `COC(=O)C1=C(C)Nc2[nH]nc(-c3ccccc3)c2C1c1cccc([N+](=O)[O-])c1` (centres undefined), the melting point was in the range of 240 to 241 °C.

`OCc1nc2cnc3ccccc3c2n1Cc1ccccc1` had a melting point of 211 to 213 °C.

Compound `NC(Cc1c[nH]c2cc(Cl)cc(Cl)c12)C(=O)OCCC(=O)OCc1ccccc1` (centres undefined) yielded a melting point of 151 to 153 °C.

In turn, `C=CCN(C=CC=C(C#N)C#N)CC=C` returned a melting point of 50 to 52 °C.

For the compound `Cc1cc(C(N)=O)ncc1C(c1c(F)ccc(F)c1F)S(=O)(=O)c1ccc(F)c(F)c1` (centres undefined), the melting point lay in the range of 200 to 201 °C.

On to `CCOC(=O)c1c(-c2ccc(F)cc2)c2ccccn2c1C(C)C`, for which the melting point is 99 to 100 °C.

In turn, `NC1CCN(c2ncc3ncnc(Nc4ccc(OCc5ccccc5)cc4)c3n2)CC1` yielded a melting point of 150 °C.

`N[C@@H](Cc1c[nH]c2ccccc12)c1nc2c(C(F)(F)F)cccc2c(O)c1C(=O)Nc1nccs1` showed a melting point of 190 °C.

In the case of `Cc1cc(-c2cc(C(C)(C)C)[nH]n2)c(F)cc1Cl`, the melting point is 138 °C.

`CCCCCCCCCC(C)NC(=O)C=C(C)c1cccc(NC(=O)CCCC(=O)O)c1` (centres undefined) registered a melting point of 115 to 118 °C.

Compound `COC(=O)c1cc(CSc2ccccc2)cnc1C1=NC(C)(C(C)C)C(=O)N1` (centres undefined) returned a melting point of 135 to 138 °C.

`CNCC1Cc2cc(F)cc(-c3ccccc3C)c2O1` (centres undefined) came in with a melting point of 123 to 124 °C.

In turn, `CCC(=O)OC1C(CO)OC(n2cnc3c(N)ncnc32)C1OC(=O)CC` (centres undefined) had a melting point of 172 to 173 °C.

`CC1(C)CC(=O)OC1CC(Cl)(Cl)Cl` (centres undefined): the melting point was in the range of 56 to 58 °C.

Take `Cn1nc2c(c1S(C)(=O)=O)CCCN2c1ccc(Cl)cc1Cl`: the melting point lay in the range of 182 to 183 °C.

In turn, `Fc1ccccc1CO[C@H]1CO[C@@H](c2ccccc2)OC1` had a melting point of 65 to 67 °C.

In turn, `O=c1c(CCCc2ccncc2)cc2cccnc2n1-c1ccc(Cl)c([N+](=O)[O-])c1` had a melting point of 136 to 137 °C.

Consider `N#Cc1ccc2c(c1)Sc1cc3c(cc1C=C2)CCC3`, for which the melting point lay in the range of 142 to 143 °C.

In turn, `CC#CCOc1ccc(S(=O)(=O)C2(C(=O)NO)CCCN(Cc3ccc(Cl)cc3)C2)cc1` (centres undefined) showed a melting point of 124 °C.

As for `CCOc1ccccc1C1=NC(=O)C2=NC=NC2=N1`, the melting point was 276 to 277 °C.

Compound `CCOCc1nc2c(N)nc3ccc(O)cc3c2n1CC(C)(C)NS(C)(=O)=O` showed a melting point of 252 to 254 °C.

The compound `CC(C)(Cc1cc2c(OCc3ccc4ccccc4n3)cccc2n1Cc1ccc(Cl)cc1)C(=O)O` came in with a melting point of 158 to 160 °C.

In the case of `COc1ccc2c3c(c(=O)oc2c1)CN(Cc1ccc(Cl)c(Cl)c1)CC3`, the melting point lay within 144 to 146 °C.

`NC(=O)c1cc2c(cc1OCC1CCCCC1)OCCCC2=O` registered a melting point of 185 to 186 °C.

Turning to `Cn1nc(Cl)c(C(=O)C(Br)c2ccccc2)c1Cl` (centres undefined), the melting point was in the range of 74.5 to 75.5 °C.

Consider `FC(F)(F)Oc1ccc(-c2ncc(CBr)cn2)cc1`, for which the melting point lay in the range of 80 to 81 °C.

`CC(OC1CN(C(N)=O)C1)c1cccc(C(F)(F)F)c1` (centres undefined) returned a melting point of 130 to 132 °C.

Take `COc1ccc(-c2cc(C)cn2-c2ccc(S(N)(=O)=O)cc2)cc1`: the melting point lay within 163 to 166 °C.

The compound `COc1ccc(-c2coc3cc(OCC(O)CN4CCOCC4)ccc3c2=O)cc1OC` (centres undefined) showed a melting point of 135 to 136 °C.

Compound `Cc1ccc(S(=O)(=O)N2CCC(Sc3ccccc3)CC2)cc1` yielded a melting point of 105 to 108 °C.

Take `CC1(C)CCc2cc(S(=O)(=O)C[N+](=O)[O-])ccc2O1`: the melting point fell in the range of 85 to 86.5 °C.
